The supplement of paper PMC10307832

How the values were obtained:
Experiment in all cases: relative viability (nuclei count vs DMSO), 5 days (fraction); higher = more cells survive
VE-821 + AZD7762 = compound: CS(=O)(=O)c1ccc(-c2cnc(N)c(C(=O)Nc3ccccc3)n2)cc1 [VE-821] + NC(=O)Nc1cc(-c2cccc(F)c2)sc1C(=O)N[C@H]1CCCNC1 [AZD7762] (partner 0.2 µM)
In short: (§1)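 Lung cancer cell lines were seeded in 1536-well plates and dosed by pin tool the next day, with either a single drug or a fixed anchor-drug dose combined with five library-drug doses (not always all listed) spaced in √10 steps. Five days later, one step fixed the cells and stained their nuclei (final 0.05% Triton X-100, 1% formaldehyde, 1 ug/ml Hoechst), and nuclei were counted on 4× images. Relative viability is the nuclei count in treated wells divided by the count in vehicle wells, and each value is the median of duplicate plates.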

[1] = compound: N#CC[C@H](C1CCCC1)n1cc(-c2ncnc3[nH]ccc23)cn1 [Ruxolitinib] + CC(=O)c1c(C)c2cnc(Nc3ccc(N4CCNCC4)cn3)nc2n(C2CCCC2)c1=O [Palbociclib] (partner 0.5 µM)
In short: as §1

Vismodegib + Palbociclib = compound: CS(=O)(=O)c1ccc(C(=O)Nc2ccc(Cl)c(-c3ccccn3)c2)c(Cl)c1 [Vismodegib] + CC(=O)c1c(C)c2cnc(Nc3ccc(N4CCNCC4)cn3)nc2n(C2CCCC2)c1=O [Palbociclib] (partner 0.5 µM)
In short: as §1

VE-821 + Navitoclax = compound: CS(=O)(=O)c1ccc(-c2cnc(N)c(C(=O)Nc3ccccc3)n2)cc1 [VE-821] + CC1(C)CCC(c2ccc(Cl)cc2)=C(CN2CCN(c3ccc(C(=O)NS(=O)(=O)c4ccc(N[C@H](CCN5CCOCC5)CSc5ccccc5)c(S(=O)(=O)C(F)(F)F)c4)cc3)CC2)C1 [Navitoclax] (partner 0.5 µM)
In short: as §1

Row | Cell Line | relative viability (VE-821 + AZD7762; first compound 0.08 µM) | relative viability (VE-821 + AZD7762; first compound 0.253 µM) | relative viability (VE-821 + AZD7762; first compound 0.8 µM) | relative viability (VE-821 + AZD7762; first compound 2.53 µM) | relative viability (VE-821 + AZD7762; first compound 8 µM) | relative viability ([1]; first compound 0.08 µM) | relative viability ([1]; first compound 0.253 µM) | relative viability ([1]; first compound 0.8 µM) | relative viability ([1]; first compound 2.53 µM) | relative viability ([1]; first compound 8 µM) | relative viability (Vismodegib + Palbociclib; first compound 0.08 µM) | relative viability (Vismodegib + Palbociclib; first compound 0.253 µM) | relative viability (Vismodegib + Palbociclib; first compound 0.8 µM) | relative viability (Vismodegib + Palbociclib; first compound 2.53 µM) | relative viability (Vismodegib + Palbociclib; first compound 8 µM) | relative viability (VE-821 + Navitoclax; first compound 0.08 µM) | relative viability (VE-821 + Navitoclax; first compound 0.253 µM) | relative viability (VE-821 + Navitoclax; first compound 2.53 µM) | relative viability (VE-821 + Navitoclax; first compound 8 µM) | relative viability (VE-821 + Navitoclax; first compound 0.8 µM)
1 | NCI-H2342 | 0.494 | 0.642 | 0.426 | 0.388 | 0.384 | 0.53 | 0.496 | 0.49 | 0.543 | 0.541 | 0.517 | 0.699 | 0.472 | 0.574 | 0.483 |  |  |  |  | 
2 | NCI-H520 |  |  |  |  |  | 0.243 | 0.218 | 0.251 | 0.204 | 0.258 | 0.182 | 0.224 | 0.254 | 0.198 | 0.288 | 1.16 | 1.15 | 1.1 | 0.671 | 
3 | NCI-H2405 | 0.791 | 0.677 | 0.598 | 0.553 | 0.25 | 0.52 | 0.514 | 0.589 | 0.295 | 0.389 | 0.527 | 0.493 | 0.498 | 0.515 | 0.571 | 0.873 | 0.888 | 0.942 | 0.751 | 0.762
4 | PC-3 [JPC-3] | 0.882 | 0.728 | 0.99 | 0.798 | 0.62 |  | 0.596 | 0.579 | 0.566 | 0.553 | 0.522 | 0.547 | 0.511 | 0.506 | 0.572 | 0.837 | 0.801 | 0.789 | 0.744 | 0.859
5 | EBC-1 |  |  |  |  |  |  |  |  |  |  |  |  |  |  |  | 0.44 | 0.412 | 0.254 | 0.221 | 0.399
6 | NCI-H2023 |  |  |  |  |  | 0.42 | 0.4 | 0.361 | 0.387 | 0.397 | 0.321 | 0.318 | 0.374 | 0.345 | 0.4 | 1.01 | 1.02 | 0.686 | 0.296 | 0.808
7 | SK-LU-1 |  |  |  |  |  | 0.426 | 0.416 | 0.421 | 0.374 | 0.336 | 0.407 | 0.416 | 0.416 | 0.376 | 0.384 | 0.781 | 0.871 | 0.366 | 0.247 | 0.744
8 | NCI-H522 | 0.888 | 0.707 | 0.787 | 0.962 | 0.767 | 1.12 | 1.09 | 1.16 | 0.869 | 0.933 | 1.16 | 0.985 | 0.894 | 0.923 | 1.03 |  |  |  |  | 
9 | Calu-6 |  |  |  |  |  |  |  |  |  |  |  |  |  |  |  | 0.845 | 0.828 | 0.648 | 0.35 | 0.791
10 | IA-LM |  |  |  |  |  |  |  |  |  |  |  |  |  |  |  | 0.855 | 0.71 | 0.92 | 0.527 | 0.755
11 | SW 1573 |  |  |  |  |  | 0.436 | 0.382 | 0.411 | 0.546 | 0.299 | 0.395 | 0.398 | 0.363 | 0.406 | 0.451 | 1.12 | 0.992 | 0.796 | 1.1 | 1.03
12 | NCI-H650 | 0.873 | 0.954 | 0.992 | 0.836 | 1.04 | 0.325 | 0.339 | 0.347 | 0.317 | 0.321 | 0.359 | 0.323 | 0.309 | 0.338 | 0.341 |  |  |  |  | 
13 | NCI-H1648 | 0.582 |  | 0.49 | 0.473 | 0.319 | 0.294 | 0.302 | 0.344 | 0.345 | 0.371 | 0.282 | 0.246 | 0.214 | 0.274 | 0.241 |  |  |  |  | 
14 | NCI-H2009 |  |  |  |  |  | 0.289 | 0.216 | 0.241 | 0.154 | 0.139 | 0.208 | 0.238 | 0.188 | 0.252 | 0.276 | 1.16 | 1.13 | 1.26 | 1.16 | 1.13
15 | NCI-H2228 |  |  |  |  |  | 0.622 | 0.812 | 0.843 | 0.713 | 0.219 | 0.927 | 0.74 | 0.761 | 0.627 | 0.955 | 0.943 | 1.01 | 0.842 | 0.741 | 0.811
16 | NCI-H1703 | 0.0991 | 0.11 | 0.14 | 0.119 | 0.1 |  |  |  |  |  |  |  |  |  |  | 1.25 | 0.923 | 0.394 | 0.246 | 1.17
17 | ABC-1 | 0.86 | 0.767 | 0.94 | 0.714 | 0.628 |  | 0.831 | 0.652 | 0.808 | 0.754 | 0.667 | 1.01 | 0.542 | 0.618 | 0.73 |  |  |  |  | 
18 | NCI-H1299 |  |  |  |  |  |  |  |  |  |  |  |  |  |  |  | 1.05 | 1.04 | 1 | 1.03 | 1.01
19 | SK-MES-1 |  |  |  |  |  | 0.331 | 0.336 | 0.332 | 0.305 | 0.321 | 0.289 | 0.306 | 0.349 | 0.351 | 0.364 | 1.3 | 1.23 | 1.21 | 1.26 | 1.24
20 | NCI-H661 |  |  |  |  |  | 0.425 | 0.436 | 0.427 | 0.417 | 0.381 | 0.446 | 0.432 | 0.439 | 0.39 | 0.405 |  |  |  |  | 
